# “Also recorded” adds a separate entry of the source.
# How the values were obtained:
# NRP-1/OBR complex = NRP-1/OBR complex detection by Duolink Proximity Ligation Assay in MDA-MB-231 cells; format: cell-based, human; details: Leptin stimulation compared to serum starved and unstimulated cells
# Text: FIG. 2A-E. NRP-1/OBR complex is dependent of the activity of Protein-kinase CK2: NRP-1 and OBR are both a substrate of the holoenzyme CK2: In vitro phosphorylation of the recombinant full length NRP-1 (A) and the length OBR (B) indicate that the CK2β subunit is indispensable for the CK2 activity. C. Detection of the NRP-1 and CK2β subunit interaction: By using the PLA technology, the in vitro data showing the implication of CK2β subunit in the phosphorylation of NRP-1 by CK2 are in part confirmed in MDA-MB231 cells by the detection of CK2β interaction with NRP-1 as indicated by the duolink (white dot). […] E. inhibition of the NRP-1/OBR by the simultaneous CK2α and CK2α′ expression silencing using siRNA that confirms the CK2 implication In the NRP-1/OBR complex formation and nuclear localization.
# To confirm a direct association of NRP-1 and Leptin in breast cancer cell migration, we investigated the NRP-1 and OBR interaction by using proximity ligation assay technology (Duolink) in MDA-MB-231 and in T47D-NRP-1. Since OBR is a member of the class I cytokine receptor family, we asked the question if the formation of the complex NRP-1/OBR can or not be modulated by Leptin. This question was investigated endogenously in MDA-MB-231 or by transient transfection of T47D either by NRP-1 or by NRP-1/OBR or OBR alone. After 24 h of transfection, cells were serum starved for 16 h then stimulated with Leptin (10 nM). After 3 h, the stimulation was stopped by removing the medium, cells was first washed then fixed and NRP-1/OBR complex formation was analyzed by Duolink in situ Proximity Ligation Assay (PLA) and by confocal microscopy detection. Co-localization was analyzed using JACoP (ImageJ; National Institutes of Health, Bethesda, Md.) software. Co-localization between molecules was indicated by a positive Pearson coefficient (r). First, the expression of NRP-1 in transfected T47D was confirmed by RT-PCR. NRP-1 forms a complex with endogenous OBR as it is shown by the Duolink detection as red dot in cells transfected with pcDNA3-NRP-1. The Duolink signal increased in the T47D co-transfected with NRP-1 and OBR. The Duolink signals in T47D transfected with either the empty vector pcDNA3 or with the OBR expressing vector were similar. The same results are observed in MDA-MB-231. […] By using subcellular protein fractionation kit, NRP-1 and OBR localization in cytoplasmic (C), membrane (M), in the total nuclear extract (N) or in soluble nuclear (SN) and chromatin bound fractions (CB) was analyzed by western blotting either in total lysate or after coimmunoprecipitation. The purity of fraction was assessed by the detection of specific proteins of each fraction such as Hsp90 for the C fraction, SP1 and HDAC2 for the SN and CB fractions and specifically the Calreticulin for endoplasmic reticulum (ER) in order to detect any contamination by the ER membrane fraction in the nuclear fractions. As suspected, OBR was coimmunoprecipitated with NRP-1 in the cytoplasmic (C) and in the nuclear fraction (N) of MDA-MB-231 but not in T47D. As well as Phosphorylated OBR (P-OBR), NRP-1 was detected in cytoplasmic fraction and in nuclear fractions SN and CB of 16 h serum starved MDA-MB-231 and stimulated with 10 nM of Leptin during 3 h at 37° C. The P-OBR and NRP-1 coimmunoprecipitated in the nuclear fractions, increasing with Leptin stimulation as observed by confocal microscopy.
# As attempted, NRP-1/OBR complex was detected by confocal microscopy after by Duolink in situ Proximity Ligation Assay (PLA) in MDA-MB-231 stimulated with Leptin (10 nM). This detection was also observed in MDA-MB-231-shGFP but very less in MDA-MB-231-shNRP-1 confirming NRP-1 association with OBR.
# [1] = test system: OBR and STAT3 phosphorylation; assay: OBR and STAT3 phosphorylation in cytoplasmic and nuclear fractions; format: cell-based; details: Leptin stimulation
# Text: Since both NRP-1/OBR complex formation and NRP-1 phosphorylation were abolished by CK2 inhibition, we supposed that OBR signaling pathway could be also affected by CK2 inhibition.
# [2] = test system: MDA-MB-231 and T47D-NRP-1; assay: In vitro cell proliferation (MTT, (H3)-thymidine, BrdU incorporation); format: cell-based, human; details: Leptin stimulation
# Text: (§1) First MBA-MB-231 and T47D breast cancer cells line were selected for their high and undetectable NRP-1 expression respectively and the expression of Leptin receptor (OBR). In order to investigate NRP-1 and Leptin association in breast cancer cell line migration, we proceeded to NRP-1 expression silencing in MDA-MB-231 using either siRNA or shRNA approaches or NRP-1 overexpression in T47D. […] In contrast Leptin induced MDA-MB-231 migration that was decreased in siNRP-1 conditions. The in vitro data were confirmed in vivo by MDA-MB-231 and T47D xenografts in Nude mice. Modulation of NRP-1 expression either by shRNA silencing in MDA-MB-231 or by overexpression in T47D induced an increase of proliferation and a decrease of lymph node infiltration by MDA-MB-231-shNRP-1 and a decrease of proliferation and an increase of lymph node infiltration by T47D-NRP-1-RFP in mice treated with Leptin.
# This observation can lead to conclude that NRP-1 induces tumor growth independently of Leptin/OBR pathway and that NRP-1/OBR complex signaling is in a favor of cell movement and migration induction. The implication of Leptin in tumor growth and metastasis has already been studied but the published data are contradictory depending on cancer cell type and model studies. […] In our case, in vitro leptin implication in cell growth has been evaluated by different methods. […]
# [3] = test system: MDA-MB-231-shNRP-1 xenografts; assay: MDA-MB-231 xenografts in Nude mice; format: in vivo; details: Leptin treatment, KL1 staining
# Text: as §1
# This need to be more investigated and may be a new strategy for combined anti-Leptin and anti-VEGF therapies in breast cancer. […] In vitro and in vivo data are a direct evidence of NRP-1 and Leptin association in breast cancer cell line migration. This implication of Leptin and NRP-1 are in agreement of published data but with no association between Leptin and NRP-1.
substance,measurement,setting,value
"Leptin: small non glycosylated protein, ligand of OBR",direct interaction between NRP-1 and OBR (Duolink PLA),NRP-1/OBR complex,takes place under Leptin stimulation
same,OBR and STAT3 phosphorylation,[1],increase
same,cell proliferation,[2],decreased; also recorded: unable to observe; also recorded: not able to observe a significant increase
same,lymph node infiltration by MDA-MB-231-shNRP-1,[3],did not increase
